Reference: PMC5882637, “Ethanol potentiates the genotoxicity of the food-derived mammary carcinogen PhIP in human estrogen receptor-positive mammary cells: mechanistic support for lifestyle factors (cooked red meat and ethanol) associated with mammary cancer” (Archives of Toxicology, 2018)

Columns and labels:
[1] = test system: MCF-7 cells; assay: Cytotoxicity (cell counting, TrypanBlue exclusion), MCF-7; conditions: for change in cell survival following treatment: Fig. 1a
Experimental: (§1) Cells were cultured routinely in 75-cm^2 flasks in a humidified incubator at 37 °C, 5% CO2.
(§2) Briefly, cells were seeded at a density of 5 × 10^4 cells per well in 24-well plate. Cells were treated with PhIP or ethanol as detailed previously. Following treatment with chemicals and harvesting (48 h), cells were trypsinised, the cell concentration adjusted to 2 × 10^5 and re-suspended in serum-free R0 (serum-free media) with 2% pluronic acid medium (GIBCO, Life technologies) and cytotoxicity was determined by counting cells in a haemocytometer with TrypanBlue exclusion (GIBCO, Life technologies). For the MN assay, cells were spread on a microscope slide using a cytospin. Cells at a density of 2 × 10^4 cells per slide were fixed with 100% methanol and stained for 60 s with acridine orange (0.1 mg ml^−1 dissolved in PBS, Sigma-Aldrich). Frequency of MN was scored in 2000 cells per sample and three biological replicates were performed per treatment.

[2] = test system: intracellular ROS in MCF-7 cells; assay: ROS assay (carboxy-DCF-DA), MCF-7; type: cell-based, human; conditions: for intracellular ROS levels: ethanol 50 mM or PhIP 100 µM alone, Fig. 6c
Experimental: STAT3 inhibitor was dissolved in DMSO.
Production of reactive oxygen species (ROS) was measured using 2′,7′–dichlorofluorescein diacetate method. Carboxy-2′,7′-dichlorofluorescein diacetate (carboxy-DCF-DA) is taken up by viable cells and cleaved by endogenous esterases to the nonfluorescent derivative, reduced carboxy-dichlorofluorescein (carboxy-DCFH). This product is retained in the cytosol where it can be oxidized by intracellular ROS to the highly fluorescent product, oxidised carboxy-dichlorofluorescein (carboxy-DCF). The intensity of fluorescence is proportional to intracellular ROS levels. MCF-7 cells (2 × 10^4/well) were seeded into 24-well plates in 1% FBS and allowed to attach overnight. Cells were treated with PhIP for 24 h and then treated with Carboxy-DCFDA (20 µL, 30 µM) in media containing 1% FBS (1 ml) and incubated for 30 min at 37 °C, washed with PBS and new media (1% FBS) was added. Fluorescent measurements (excitation at 485 nm and emission at 520 nm) were then taken from 10 min to 24 h using a fluorescence plate reader (BMG POLARstar Galaxy Labtech, Ortenberg, Germany). The concentration of DMSO (0.2%) was identical in all treatments and had no effect on ROS production at this concentration.

[3] = test system: MCF-7 cells; assay: Micronucleus (MN) assay, MCF-7
Experimental: as §1, §2

[4] = test system: intracellular ROS in MCF-7 cells; set-up: method as in Li et al. [2013]; Martinez-Outschoorn et al. [2010]; conditions: NAC 10 mM, ref Li et al. [2013], Martinez-Outschoorn et al. [2010]; cited from earlier work
[5] = test system: CYP1A2 mRNA expression; assay: RT-qPCR CYP1A2 mRNA, MCF-7; conditions: Fig. 2a; for CYP1A2 mRNA expression vs vehicle control: 24 h, E2 1 µM
Experimental: as §1
(§3) Following treatment, cells were lysed using TRIZOL reagent and chloroform (0.2 ml) was added in each sample and centrifuged 12,000xg (10 min 2–8 °C). The upper aqueous phase was transferred to a fresh tube and 5 µg of RNase-free glycogen (as carrier to aqueous phase) and 0.5 ml of isopropyl alcohol was added to precipitate RNA and incubated (37 °C, 10 min). Following incubation, lysates were centrifuged at 12,000xg (10 min 2–8 °C). The gel-like pellet was washed with ethanol and re-dissolved in RNase-free water with heating (55–60 °C). Extracted RNA was quantified by UV spectroscopy (UV–VIS Nano-spectrophotometer, Implen, Essex, UK) and purity was assessed from 260/280 nm and 260/230 nm ratios. Reverse transcription (RT) of extracted RNA (100–500 ng) was completed according to manufacturer’s protocol (Invitrogen) and qPCR was performed using predesigned Taqman gene expression assays and FAST PCR master mix (Taqman, Applied Biosystems, Life technologies) using a StepOnePlus fast real-time PCR system (Applied Biosystems, Life technologies). Target gene expression was normalized to GAPDH and quantified using the delta-Ct method (Livak and Schmittgen [2001]).

[6] = test system: CYP1A2 mRNA expression; assay: RT-qPCR CYP1A2 mRNA, MDA-MB-231; conditions: Fig. 2c; for CYP1A2 mRNA expression vs vehicle control: 24 h, E2 1 µM
Experimental: as §1, §3

[7] = test system: MDA-MB-231 cells; assay: Cytotoxicity (cell counting, TrypanBlue exclusion), MDA-MB-231; conditions: for change in cell survival following treatment: Fig. 1b
Experimental: as §1, §2

[8] = test system: CYP1B1 mRNA expression; assay: RT-qPCR CYP1B1 mRNA, MCF-7
Experimental: as §1, §3

[9] = test system: CYP2E1 mRNA expression; assay: RT-qPCR CYP2E1 mRNA, MCF-7
Experimental: as §1
For STAT3 inhibition, cells were co-treated for 24 h with PhIP and 25 µM STAT3 inhibitor (STAT3 inhibitor VIII 5, 15 diphenylporphyrin, Millipore, Feltham, UK). STAT3 inhibitor was dissolved in DMSO. For ethanol treatment, media was supplemented with different concentrations of ethanol (10 mM-100 mM, Sigma-Aldrich) and was added to the cells. In some experiments, N-acetyl-cysteine (NAC) (10 mM, Sigma-Aldrich) diluted in phosphate-buffered saline (PBS) was added to incubations.
as §3

[10] = test system: STAT3 mRNA expression; assay: qPCR STAT3 mRNA, MCF-7; type: cell-based, human
Experimental: as §1, §3

[11] = test system: MDA-MB-231 cells; assay: Micronucleus (MN) assay, MDA-MB-231
Experimental: as §1, §2

[12] = test system: CYP1B1 mRNA expression; assay: RT-qPCR CYP1B1 mRNA, MDA-MB-231; conditions: 24 h
Experimental: as §1, §3

[13] = test system: CYP1A1; assay: RT-qPCR CYP1A1 mRNA, MCF-7; type: cell-based, human; conditions: data not shown
Experimental: as §1, §3

[14] = test system: CYP1A1; assay: RT-qPCR CYP1A1 mRNA, MDA-MB-231; type: cell-based, human; conditions: data not shown
Experimental: as §1, §3

[15] = test system: CYP2E1 mRNA expression; assay: RT-qPCR CYP2E1 mRNA, MDA-MB-231; type: cell-based, human; conditions: PhIP treatment, Fig. 3a
Experimental: as §1, §3

[16] = test system: JAK2 mRNA expression; assay: qPCR JAK2 mRNA, MCF-7; type: cell-based, human; conditions: PhIP-treated, Fig. 3b
Experimental: as §1, §3

[17] = test system: miR378 expression; assay: qPCR miR378, MCF-7; type: cell-based, human; conditions: 24 h PhIP treatment, Fig. 3b
Experimental: as §1, §3

[18] = etoposide positive control (1.25 µM)
[19] = PhIP 100 nM, three independent cultures

## CC(=O)N[C@@H](CS)C(=O)O [NAC, N-acetyl-cysteine, reference compound]
[1]; ethanol 50 mM and PhIP 100 µM with NAC 10 mM, Fig. 7d
  effect of NAC on cell survival: did not affect
[2]; ethanol 50 mM plus NAC 10 mM, Fig. 7c
  effect of NAC on ethanol-induced ROS production: clear decrease
[3]; NAC 10 mM, Fig. 7e
  effect of NAC on genotoxicity of etoposide: little effect
[3]; NAC 10 mM, p = 0.01, Fig. 7e
  effect of NAC on genotoxicity of PhIP plus ethanol: decreased the genotoxicity of PhIP plus ethanol significantly
[4]
  accumulation of ROS: abolish

## C[C@]12CC[C@@H]3c4ccc(O)cc4CC[C@H]3[C@@H]1CC[C@@H]2O [E2, Estradiol]
[5]
  CYP1A2 mRNA expression vs vehicle control: No significant change
[1]
  change in cell survival following treatment: No significant change
[6]
  CYP1A2 mRNA expression vs vehicle control: No significant change
[7]
  change in cell survival following treatment: No significant change
[8]; MCF-7, 24 h, E2 1 µM, Fig. 2b
  CYP1B1 mRNA expression vs vehicle control: upregulated

## C1=Cc2nc1cc1ccc([nH]1)c(-c1ccccc1)c1nc(cc3ccc([nH]3)c2-c2ccccc2)C=C1 [STAT3 inhibitor, 5, 15 diphenylporphyrin, reference compound]
[2]; Fig. 5b
  effect of STAT3 inhibitor on H2O2-induced ROS: failed to attenuate
[2]; PhIP 100 µM 24 h, inhibitor 25 µM, Fig. 5b
  effect of STAT3 inhibitor on ROS production by PhIP: significantly reduced
[9]; inhibitor 25 µM co-treated with PhIP 24 h, Fig. 4a
  effect of STAT3 inhibitor on CYP2E1 mRNA upregulation by PhIP: completely abolished

## CCO [ethanol]
[2]
  intracellular ROS levels: Elevated
[3]; Fig. 7b
  effect of addition of ethanol on genotoxicity of etoposide: No change
[3]; ethanol 50 mM, 24 h, Fig. 7b
  MN induction: did not significantly induce
[9]; Fig. 6a
  ethanol concentration at which CYP2E1 increase was significant: 50 to 100 mM
[9]; ethanol 10 to 100 mM, Fig. 6a
  CYP2E1 expression: dose-dependent increase

## C[C@]12CC[C@@H]3c4ccc(O)cc4C[C@@H](CCCCCCCCC[S+]([O-])CCCC(F)(F)C(F)(F)F)[C@H]3[C@@H]1CC[C@@H]2O (stereo partly shown) [ICI, Fulvestrant, reference compound]
[10]; co-treatment with PhIP, Fig. 4b
  effect of ICI on PhIP-mediated STAT3 increase: inhibited
[5]
  effect of ICI on PhIP upregulation of CYP1A2 mRNA: unaffected
[11]; Fig. 1
  effect of ICI co-incubation on MN induction by etoposide: not affected
[11]; Fig. 1d
  effect of ER antagonist (ICI) on DNA damaging ability of PhIP: no change
[3]; Fig. 1
  effect of ICI co-incubation on MN induction by etoposide: not affected
  effect of ICI on E2-mediated genotoxicity: attenuated
[3]; p < 0.001, Fig. 1c
  effect of ICI co-treatment on PhIP MN formation: significantly attenuated
[12]
  effect of concurrent ICI on PhIP-mediated induction of CYP1B1: in MCF-7 cells only
[6]
  effect of ICI on PhIP upregulation of CYP1A2 mRNA: unaffected
[9]; ICI 182,780 1 µM, Fig. 4c
  effect of ICI on CYP2E1 expression (PhIP co-treatment): significantly blocked
[8]; MCF-7, 24 h, p = 0.05
  effect of concurrent ICI on PhIP-mediated induction of CYP1B1: significantly inhibited
[8]; MCF-7, E2 1 µM, Fig. 2b
  effect of ICI co-treatment on E2-upregulated CYP1B1 expression: attenuated significantly

## COc1cc([C@@H]2c3cc4c(cc3[C@@H](O[C@@H]3O[C@@H]5CO[C@@H](C)O[C@H]5[C@H](O)[C@H]3O)[C@H]3COC(=O)[C@H]23)OCO4)cc(OC)c1O [Etoposide, reference compound]
[1]; [18]
  Cytotoxicity (percent survival ± SD): 81.7% ±1.4
[7]; [18]
  Cytotoxicity (percent survival ± SD): 83.7% ± 2.3

## Cn1c(N)nc2ncc(-c3ccccc3)cc21 [PhIP, 2-amino-1-methyl-6-phenylimidazo[4,5-b]pyridine]
[10]; 24 h PhIP treatment, Fig. 3b
  STAT3 mRNA expression: dose-dependent upregulation
[5]
  CYP1A2 mRNA expression vs vehicle control: can induce
[1]
  change in cell survival following treatment: No significant change
[1]; [19]
  Cytotoxicity (percent survival ± SD): 86% ± 2.4
[1]; PhIP 1 µM
  Cytotoxicity (percent survival ± SD): 85.6% ± 2.4
[1]; PhIP 10 µM
  Cytotoxicity (percent survival ± SD): 85.8% ± 2.6
[1]; PhIP 100 µM
  Cytotoxicity (percent survival ± SD): 82.7% ± 1.7
[13]
  CYP1A1 induction: failed to induce
[11]; PhIP 100 nM
  MN frequency (mean ± SD): 3.2 ± 2.5 MN/1000 cells
[11]; PhIP 1 µM
  MN frequency (mean ± SD): 4.7 ± 1.8 MN/1000 cells
[11]; PhIP 10 µM
  MN frequency (mean ± SD): 9 ± 0.9 MN/1000 cells
[11]; PhIP 100 µM
  MN frequency (mean ± SD): 13.7 ± 1.3 MN/1000 cells
[14]
  CYP1A1 induction: failed to induce
[2]; PhIP 24 h, pronounced over the first 60 min, Fig. 5a
  ROS levels: dose-dependent increase
[2]
  intracellular ROS levels: Elevated
[15]
  CYP2E1 mRNA expression: but not in MDA-MB-231 cells
[16]
  JAK2 mRNA expression: dose-dependent increase
[17]
  miR378 expression: no change
[3]; [19]
  MN frequency (mean ± SD): 12.8 ± 5.1 MN/1000 cells
[3]; PhIP 1 µM
  MN frequency (mean ± SD): 22.3 ± 2.6 MN/1000 cells
[3]; PhIP 10 µM
  MN frequency (mean ± SD): 29.2 ± 3.4 MN/1000 cells
[3]; PhIP 100 µM
  MN frequency (mean ± SD): 49 ± 3.5 MN/1000 cells
[12]; E2 1 µM, Fig. 2d
  CYP1B1 mRNA expression vs vehicle control: can induce
[6]
  CYP1A2 mRNA expression vs vehicle control: can induce
[7]
  change in cell survival following treatment: No significant change
[7]; PhIP 100 nM
  Cytotoxicity (percent survival ± SD): 87.2% ± 0.9
[7]; PhIP 1 µM
  Cytotoxicity (percent survival ± SD): 88.1% ± 0.9
[7]; PhIP 10 µM
  Cytotoxicity (percent survival ± SD): 90.4% ± 4.3
[7]; PhIP 100 µM
  Cytotoxicity (percent survival ± SD): 87.7% ± 1.5
[9]; PhIP treatment, Fig. 3a
  CYP2E1 mRNA expression: induced CYP2E1 mRNA expression in a dose-dependent manner
[8]; MCF-7, 24 h, E2 1 µM, Fig. 2b
  CYP1B1 mRNA expression vs vehicle control: can induce
[8]; PhIP, Fig. 2
  CYP1B1 induction in MCF-7 compared to MDA-MB-231 cells: higher
